ChEMBL document CHEMBL1201862, “PubChem BioAssay data set” (2004)
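How tested: cells in 96-well plates exposed to compound for 48 hours at five concentrations. GI50 marks 50% less growth.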 Activity calls are given as the source filed them. Cut-off read from the data, not from the text of the source: active = GI50 up to about 1.1 µM and inactive = higher.

Experiments:
Assay in all cases: NCI-60 cell line screen, 48 h
SR = system: SR
OVCAR-3 = system: OVCAR-3
UACC-257 = system: UACC-257
SK-MEL-5 = system: SK-MEL-5
LOX IMVI = system: LOX IMVI
SF-295 = system: SF-295
COLO 205 = system: COLO 205
XF498 = system: XF498
HOP-92 = system: HOP-92
A498 = system: A498
KM-20L2 = system: KM-20L2
M19-MEL = system: M19-MEL
A549 = system: A549
CAKI-1 = system: CAKI-1
U-251 = system: U-251
HCC 2998 = system: HCC 2998
HL-60 = system: HL-60
NCI-H522 = system: NCI-H522
SN12C = system: SN12C
SK-MEL-2 = system: SK-MEL-2
NCI-H460 = system: NCI-H460
DMS-114 = system: DMS-114
K562 = system: K562
786-0 = system: 786-0
OVCAR-4 = system: OVCAR-4
NCI-H23 = system: NCI-H23
OVCAR-5 = system: OVCAR-5
SF-539 = system: SF-539
CCRF-CEM = system: CCRF-CEM
NCI-H226 = system: NCI-H226
HCT-15 = system: HCT-15
SNB-78 = system: SNB-78
MOLT-4 = system: MOLT-4
TK-10 = system: TK-10
SW-620 = system: SW-620
SNB-75 = system: SNB-75
HOP-18 = system: HOP-18
DLD-1 = system: DLD-1
KM12 = system: KM12
SK-OV-3 = system: SK-OV-3
ACHN = system: ACHN
M14 = system: M14
UO-31 = system: UO-31
RPMI-8226 = system: RPMI-8226
Malme-3M = system: Malme-3M
SNB-19 = system: SNB-19
LXFL 529 = system: LXFL 529
HOP-62 = system: HOP-62
HCT-116 = system: HCT-116
UACC-62 = system: UACC-62
HT-29 = system: HT-29
SF-268 = system: SF-268
RXF 393 = system: RXF 393
OVCAR-8 = system: OVCAR-8
IGROV-1 = system: IGROV-1
DMS-273 = system: DMS-273
EKVX = system: EKVX
SK-MEL-28 = system: SK-MEL-28

Measured: GI50

COC(=O)C1=C(C)N(NC(=O)OC(C)(C)C)C(=O)C1=P(c1ccccc1)(c1ccccc1)c1ccccc1
inactive: SR 69 µM | OVCAR-3 66.8 µM | UACC-257 > 100 µM | SK-MEL-5 > 100 µM | LOX IMVI > 100 µM | SF-295 67.9 µM | COLO 205 > 100 µM | XF498 > 100 µM | HOP-92 > 100 µM | A498 > 100 µM | KM-20L2 > 100 µM | M19-MEL > 100 µM | A549 > 100 µM | CAKI-1 > 100 µM | U-251 > 100 µM | HCC 2998 > 100 µM | HL-60 42.4 µM | NCI-H522 75.5 µM | SN12C > 100 µM | SK-MEL-2 17.2 µM | NCI-H460 > 100 µM | DMS-114 > 100 µM | K562 73.5 µM | 786-0 > 100 µM | OVCAR-4 > 100 µM | NCI-H23 > 100 µM | OVCAR-5 > 100 µM | SF-539 > 100 µM | CCRF-CEM > 100 µM | NCI-H226 > 100 µM | SNB-78 > 100 µM | MOLT-4 41.4 µM | TK-10 > 100 µM | SW-620 > 100 µM | SNB-75 > 100 µM | HOP-18 > 100 µM | DLD-1 > 100 µM | KM12 64 µM | SK-OV-3 > 100 µM | ACHN > 100 µM | M14 > 100 µM | UO-31 > 100 µM | RPMI-8226 > 100 µM | Malme-3M > 100 µM | SNB-19 > 100 µM | LXFL 529 > 100 µM | HOP-62 > 100 µM | HCT-116 > 100 µM | UACC-62 > 100 µM | HT-29 > 100 µM | SF-268 > 100 µM | RXF 393 > 100 µM | OVCAR-8 > 100 µM | IGROV-1 > 100 µM | DMS-273 35.2 µM | EKVX > 100 µM
> 100 µM: HCT-15

CC(C)c1ccc(O)c(=O)cc1 [GAMMA-THUJAPLICIN]
4.59 µM: HCT-15
inactive: SR 1.66 µM | OVCAR-3 2.48 µM | UACC-257 3.38 µM | SK-MEL-5 9.35 µM | LOX IMVI 4.29 µM | SF-295 4.02 µM | COLO 205 3.74 µM | XF498 15.1 µM | HOP-92 5.62 µM | SK-MEL-28 12.6 µM | A498 19.6 µM | KM-20L2 3.99 µM | M19-MEL 6.46 µM | A549 6.59 µM | CAKI-1 11.1 µM | U-251 7.29 µM | HCC 2998 7.08 µM | HL-60 2.02 µM | NCI-H522 3.39 µM | SN12C 8.38 µM | SK-MEL-2 5 µM | NCI-H460 5.28 µM | DMS-114 2.92 µM | K562 9.33 µM | 786-0 5.87 µM | OVCAR-4 7.11 µM | NCI-H23 7.38 µM | OVCAR-5 14.3 µM | SF-539 2.38 µM | CCRF-CEM 1.86 µM | NCI-H226 3.99 µM | SNB-78 20 µM | MOLT-4 2.79 µM | TK-10 16.1 µM | SW-620 4.78 µM | SNB-75 20.6 µM | HOP-18 5.62 µM | DLD-1 5.56 µM | KM12 6.32 µM | SK-OV-3 42.8 µM | ACHN 6.05 µM | M14 7.64 µM | UO-31 3.42 µM | RPMI-8226 5.13 µM | Malme-3M 15.3 µM | SNB-19 7.74 µM | LXFL 529 5.53 µM | HOP-62 4.41 µM | HCT-116 2.8 µM | UACC-62 3.53 µM | HT-29 4.73 µM | SF-268 4.06 µM | RXF 393 22.2 µM | OVCAR-8 3.46 µM | IGROV-1 10.4 µM | DMS-273 3.89 µM | EKVX 10.1 µM
